According to ChEMBL document CHEMBL4665902, “Novel Heteroaryl Compounds for Treating Huntington's Disease” (ACS Med Chem Lett, 2020):

Molecular target: Huntingtin (Homo sapiens, UniProt P42858)
Assay: Inhibition of Huntingtin protein (unknown origin) incubated for overnight in presence of MW1/MAB2166 monoclonal antibody by MSD assay

Chain of Huntingtin (P42858 whole entry): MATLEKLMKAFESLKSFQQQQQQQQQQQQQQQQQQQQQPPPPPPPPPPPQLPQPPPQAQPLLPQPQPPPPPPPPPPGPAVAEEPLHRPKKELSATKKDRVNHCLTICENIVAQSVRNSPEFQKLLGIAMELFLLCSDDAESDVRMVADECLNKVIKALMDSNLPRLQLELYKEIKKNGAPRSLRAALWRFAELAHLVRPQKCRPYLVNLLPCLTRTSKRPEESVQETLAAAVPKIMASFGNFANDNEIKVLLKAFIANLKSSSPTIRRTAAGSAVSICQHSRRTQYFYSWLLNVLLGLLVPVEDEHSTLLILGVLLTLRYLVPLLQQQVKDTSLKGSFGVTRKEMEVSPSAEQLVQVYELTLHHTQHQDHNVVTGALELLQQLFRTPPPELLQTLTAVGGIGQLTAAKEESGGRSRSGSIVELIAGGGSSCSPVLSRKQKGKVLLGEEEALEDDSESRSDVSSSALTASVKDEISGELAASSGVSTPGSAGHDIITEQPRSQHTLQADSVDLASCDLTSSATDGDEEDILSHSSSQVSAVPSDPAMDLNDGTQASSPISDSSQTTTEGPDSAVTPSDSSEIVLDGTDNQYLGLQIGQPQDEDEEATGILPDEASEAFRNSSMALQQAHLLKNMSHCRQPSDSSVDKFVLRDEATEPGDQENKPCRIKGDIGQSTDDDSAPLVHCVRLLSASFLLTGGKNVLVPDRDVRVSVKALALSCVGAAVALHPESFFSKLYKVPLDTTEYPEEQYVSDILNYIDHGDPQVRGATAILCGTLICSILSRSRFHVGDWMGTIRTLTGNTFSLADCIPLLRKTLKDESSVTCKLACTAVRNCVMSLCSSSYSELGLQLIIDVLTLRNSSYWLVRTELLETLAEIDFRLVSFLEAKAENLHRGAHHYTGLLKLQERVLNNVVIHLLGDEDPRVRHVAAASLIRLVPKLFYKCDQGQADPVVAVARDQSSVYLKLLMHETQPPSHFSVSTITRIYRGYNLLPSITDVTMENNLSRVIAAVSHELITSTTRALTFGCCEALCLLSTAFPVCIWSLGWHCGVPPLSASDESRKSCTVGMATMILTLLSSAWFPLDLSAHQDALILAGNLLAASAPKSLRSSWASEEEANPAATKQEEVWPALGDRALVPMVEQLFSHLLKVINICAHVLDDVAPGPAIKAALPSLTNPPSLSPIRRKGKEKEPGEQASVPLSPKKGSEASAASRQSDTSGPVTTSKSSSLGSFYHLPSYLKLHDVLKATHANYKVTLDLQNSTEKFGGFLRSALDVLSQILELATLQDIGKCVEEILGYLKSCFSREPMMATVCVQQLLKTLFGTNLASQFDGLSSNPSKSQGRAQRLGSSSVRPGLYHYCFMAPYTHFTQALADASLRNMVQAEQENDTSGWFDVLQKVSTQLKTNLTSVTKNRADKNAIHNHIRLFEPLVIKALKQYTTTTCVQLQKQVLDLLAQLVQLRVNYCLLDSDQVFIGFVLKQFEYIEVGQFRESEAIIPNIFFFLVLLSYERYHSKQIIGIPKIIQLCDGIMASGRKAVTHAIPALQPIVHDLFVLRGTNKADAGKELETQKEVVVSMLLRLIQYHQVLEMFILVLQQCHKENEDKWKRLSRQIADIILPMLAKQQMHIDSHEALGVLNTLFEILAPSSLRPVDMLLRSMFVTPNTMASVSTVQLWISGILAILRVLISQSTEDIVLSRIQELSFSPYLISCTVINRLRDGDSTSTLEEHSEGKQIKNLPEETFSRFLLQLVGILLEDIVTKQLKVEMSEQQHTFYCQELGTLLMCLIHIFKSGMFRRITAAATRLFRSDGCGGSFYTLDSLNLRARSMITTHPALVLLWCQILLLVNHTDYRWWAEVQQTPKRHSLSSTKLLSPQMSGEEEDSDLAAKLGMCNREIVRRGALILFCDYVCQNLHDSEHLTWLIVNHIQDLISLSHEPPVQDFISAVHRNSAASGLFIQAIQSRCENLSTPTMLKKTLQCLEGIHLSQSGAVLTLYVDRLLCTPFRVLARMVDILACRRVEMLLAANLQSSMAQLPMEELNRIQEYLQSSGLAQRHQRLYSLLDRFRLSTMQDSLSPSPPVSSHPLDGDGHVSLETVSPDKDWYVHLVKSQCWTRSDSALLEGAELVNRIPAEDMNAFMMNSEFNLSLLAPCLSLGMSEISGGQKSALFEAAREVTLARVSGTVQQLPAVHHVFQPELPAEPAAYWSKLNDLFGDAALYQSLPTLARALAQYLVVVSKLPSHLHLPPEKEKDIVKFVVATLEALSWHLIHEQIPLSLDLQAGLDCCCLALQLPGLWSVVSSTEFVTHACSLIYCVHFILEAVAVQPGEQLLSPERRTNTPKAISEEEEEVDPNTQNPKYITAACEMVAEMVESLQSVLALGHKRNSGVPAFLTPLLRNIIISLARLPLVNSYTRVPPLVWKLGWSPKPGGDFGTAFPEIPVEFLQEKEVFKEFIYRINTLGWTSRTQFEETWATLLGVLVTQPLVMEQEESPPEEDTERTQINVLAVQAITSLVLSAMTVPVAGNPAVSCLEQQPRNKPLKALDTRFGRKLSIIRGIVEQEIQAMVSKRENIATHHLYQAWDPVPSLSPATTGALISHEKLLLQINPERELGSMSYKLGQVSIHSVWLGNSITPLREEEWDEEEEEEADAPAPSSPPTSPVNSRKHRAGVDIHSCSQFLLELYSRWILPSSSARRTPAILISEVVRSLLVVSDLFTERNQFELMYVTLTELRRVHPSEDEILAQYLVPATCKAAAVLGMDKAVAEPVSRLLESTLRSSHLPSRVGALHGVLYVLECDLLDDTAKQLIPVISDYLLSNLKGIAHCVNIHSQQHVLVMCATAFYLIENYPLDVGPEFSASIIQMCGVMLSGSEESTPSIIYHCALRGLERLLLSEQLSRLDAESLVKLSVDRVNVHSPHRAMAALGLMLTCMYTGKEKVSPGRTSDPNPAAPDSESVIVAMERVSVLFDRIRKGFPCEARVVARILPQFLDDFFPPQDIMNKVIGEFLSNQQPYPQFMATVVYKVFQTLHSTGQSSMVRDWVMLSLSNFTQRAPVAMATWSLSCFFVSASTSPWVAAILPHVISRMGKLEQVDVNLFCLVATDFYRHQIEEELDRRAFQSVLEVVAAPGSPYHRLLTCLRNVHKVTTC

SMILES	IC50
C[C@H]1C[C@H](Oc2nc3sc(-c4ncc(-c5nnn(C)n5)c5cc[nH]c45)nc3s2)CCN1	≤ 100 nM
Cc1cn2nc(-c3cn4cc(C5CCNCC5)nc4s3)cc(C)c2n1	≤ 100 nM
Cn1cc2cc(-c3nn4cc(C5CCNCC5)nc4s3)cc(C#N)c2n1	≤ 100 nM
CN(c1nc2sc(-c3ncc(-c4cn[nH]c4)cc3O)nc2s1)C1CC(C)(C)NC(C)(C)C1	≤ 100 nM
CN(c1nc2sc(-c3cnc(-c4cn[nH]c4)c4[nH]ccc34)nc2s1)C1CCNCC1	≤ 100 nM
CN(c1nc2sc(-c3ncc(-c4cn[nH]c4)nn3)nc2s1)C1CC(C)(C)NC(C)(C)C1	≤ 100 nM
